The values that follow come from patent US8592581B2, “Trisubstituted purine derivatives” (Cyclacel Limited, priority 2007, dated 2013).

Structures are written as SMILES. Where two headings read alike, the source gives them in different places.

One experiment deals with CDK2/cyclin E (Homo sapiens (Human), UniProt P24941). Put plainly: In-vitro recombinant kinase assay CDK2/cyclin E. The format is biochemical. The procedure: (§1) To evaluate the in-vitro kinase potency of the compounds, they were screened against CDK 2 and CDK9. Kinase assays were performed in 96-well plates using recombinant CDK/cyclins generated at Cyclacel. Ltd Dundee, UK. CDK2 and CDK9 assays were performed in a total volume of 25 μl in assay buffer (25 mM b-glycerophosphate, 20 mM MOPS, 5 mM EGTA, 1 mM DTT and 1 mM NaVO3, pH 7.4), into which were added 2-4 μg of active enzyme with appropriate substrates (purified histone H1 for CDK2/cyclin E, and CDK2/cyclin A, biotinyl-Ahx-(YSPTSPS)4 for CDK9/cyclin T1). […] CDK2 reactions were stopped by addition of 25 μl of 75 mM phosphoric acid, followed by filtration through P81 filterplates (Whatman Polyfiltronics, Kent, UK). For CDK9, the reaction was stopped by addition of 25 μl of 75 mM phosphoric acid, then 5 μl of 10 mg/ml avidin was added to each well and further incubated for 2 min followed by filtration as per CDK2 assay. After washing 3 times with 75 mM orthophosphoric acid, plates were dried, scintillant added and incorporated radioactivity measured in a scintillation counter (TopCount, Packard Instruments, Pangbourne, Berks, UK). Compounds for kinase assay were made up as 10 mM stocks in DMSO and diluted into 10% DMSO in assay buffer.
as §1

The test system of experiment [1] is H460 non-small cell lung cancer (NSCLC) cell line. Put plainly: Alamar blue cytotoxicity assay in H460 NSCLC tumour cell line. It counts as cell-based. The settings on record: for Fold increase in potency: H460 cellular IC50 compared with seliciclib; for IC50: H460 cells, 72 hours, average of three independent experiments. The protocol: In order to determine the cellular potency of the compounds, the cytotoxicity of each compound was determined against the H460 non-small cell lung cancer (NSCLC) cell line. Standard cytotoxicity methods were performed as follows: H460 cells were seeded in 96-well plates appropriately for their doubling time (3000 cells per well) in RPMI media containing 10% FCS and incubated overnight at 37° C., 5% CO2. The media was removed and 100 μl fresh media containing increasing concentrations of appropriate compound was added and the cells incubated for 72 hours at 37° C., 5% CO2. A 10% stock of alamar blue (Roche, Lewes, United Kingdom) was prepared in medium and 100 μl added to the cells which were incubated for 2 hours.

Another experiment deals with CDK2/cyclin A (Homo sapiens (Human), UniProt P24941). The experiment in a line: In-vitro recombinant kinase assay CDK2/cyclin A. It counts as biochemical. The protocol:
as §1, §1

The target of the next experiment is CDK9/cyclin T1 (Homo sapiens (Human), UniProt P50750). The experiment in a line: In-vitro recombinant kinase assay CDK9/cyclin T1. The format is biochemical. The settings on record: Table 2; average of duplicate points. The procedure: as §1, §1
Chain of CDK9/cyclin T1 (P50750 whole entry, species assumed): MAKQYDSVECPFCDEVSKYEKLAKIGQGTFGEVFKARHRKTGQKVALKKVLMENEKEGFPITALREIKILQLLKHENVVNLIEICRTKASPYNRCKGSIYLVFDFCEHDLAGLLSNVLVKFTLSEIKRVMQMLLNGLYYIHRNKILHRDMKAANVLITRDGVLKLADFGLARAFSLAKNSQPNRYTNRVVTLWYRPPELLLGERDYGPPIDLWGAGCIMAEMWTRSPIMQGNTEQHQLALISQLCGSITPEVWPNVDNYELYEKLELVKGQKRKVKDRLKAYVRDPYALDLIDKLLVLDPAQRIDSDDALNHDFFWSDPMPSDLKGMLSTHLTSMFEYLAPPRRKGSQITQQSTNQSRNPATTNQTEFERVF
Chain of CDK9/cyclin T1 (O60563 whole entry partner, species assumed): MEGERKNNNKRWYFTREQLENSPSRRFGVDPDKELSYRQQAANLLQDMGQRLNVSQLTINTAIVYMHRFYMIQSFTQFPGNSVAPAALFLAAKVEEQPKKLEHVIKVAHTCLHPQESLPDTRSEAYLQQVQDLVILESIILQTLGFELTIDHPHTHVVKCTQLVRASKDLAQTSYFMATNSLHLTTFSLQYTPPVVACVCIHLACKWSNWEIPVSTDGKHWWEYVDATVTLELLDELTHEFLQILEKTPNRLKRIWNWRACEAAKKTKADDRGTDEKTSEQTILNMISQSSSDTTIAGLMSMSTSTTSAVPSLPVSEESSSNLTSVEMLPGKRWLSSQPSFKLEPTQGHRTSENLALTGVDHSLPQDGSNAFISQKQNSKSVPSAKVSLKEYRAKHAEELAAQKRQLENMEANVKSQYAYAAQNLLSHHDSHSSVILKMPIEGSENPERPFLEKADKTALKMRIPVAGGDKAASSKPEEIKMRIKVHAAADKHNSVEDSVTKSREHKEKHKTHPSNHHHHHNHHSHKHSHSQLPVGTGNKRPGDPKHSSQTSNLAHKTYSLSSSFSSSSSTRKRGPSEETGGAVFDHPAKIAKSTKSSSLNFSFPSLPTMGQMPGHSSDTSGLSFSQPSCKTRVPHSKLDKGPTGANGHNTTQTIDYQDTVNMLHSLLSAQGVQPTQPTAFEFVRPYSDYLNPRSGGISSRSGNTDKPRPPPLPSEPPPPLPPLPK
For a further experiment, the target named is CDK1B (Homo sapiens (Human), UniProt P06493). Put plainly: In-vitro kinase assay screen CDK1B (Table 4). It counts as biochemical.
Chain of CDK1B (P06493 whole entry): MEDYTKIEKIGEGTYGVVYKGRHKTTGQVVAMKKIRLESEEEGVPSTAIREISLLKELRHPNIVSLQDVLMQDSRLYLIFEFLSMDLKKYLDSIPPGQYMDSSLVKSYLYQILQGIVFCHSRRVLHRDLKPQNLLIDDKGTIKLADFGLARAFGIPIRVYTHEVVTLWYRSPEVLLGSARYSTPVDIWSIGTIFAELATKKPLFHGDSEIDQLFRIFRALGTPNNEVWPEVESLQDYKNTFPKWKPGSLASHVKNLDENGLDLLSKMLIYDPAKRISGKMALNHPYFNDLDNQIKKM
Chain of CDK1B (P14635 whole entry partner): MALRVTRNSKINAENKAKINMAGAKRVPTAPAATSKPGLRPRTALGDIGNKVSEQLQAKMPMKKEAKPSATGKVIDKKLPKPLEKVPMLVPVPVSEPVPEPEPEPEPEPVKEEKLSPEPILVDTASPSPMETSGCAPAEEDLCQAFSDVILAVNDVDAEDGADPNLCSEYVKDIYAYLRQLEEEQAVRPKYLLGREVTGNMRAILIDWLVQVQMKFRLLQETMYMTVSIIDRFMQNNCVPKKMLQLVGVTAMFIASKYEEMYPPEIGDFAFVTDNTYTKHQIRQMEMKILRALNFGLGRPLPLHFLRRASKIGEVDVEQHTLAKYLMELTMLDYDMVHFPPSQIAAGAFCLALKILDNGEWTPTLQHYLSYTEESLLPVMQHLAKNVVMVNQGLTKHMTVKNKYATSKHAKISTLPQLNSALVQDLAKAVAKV
Where [2] appears, read: Table 2, average of duplicate points, read-out: CDK2/Cyclin E Average IC50.
Where [3] appears, read: Table 2, average of duplicate points, read-out: CDK2/Cyclin A Average IC50.
Setting [4] is: Table 4, Run 1, read-out: CDK2E Run 1.
[5] abbreviates: Table 4, Run 2, read-out: CDK2E Run 2.
Setting [6] is: Table 4, mean of two runs, read-out: CDK2E Mean.
Setting [7] is: Table 4, Run 1, read-out: CDK2A Run 1.
The mark [8] stands for this setting: Table 4, Run 2, read-out: CDK2A Run 2.
Where [9] appears, read: Table 4, Run 1, read-out: CDK1B Run 1.
[10] abbreviates: Table 4, Run 2, read-out: CDK1B Run 2.
Setting [11] is: Table 4, mean of two runs, read-out: CDK1B Mean.

Turning to `CC[C@H](Nc1nc(NCc2ccc(C)nc2)c2ncn(C(C)C)c2n1)[C@@H](C)O` [[2], 2R,3S-3-(9-isopropyl-6-((6-methylpyridin-3-yl)methylamino)-9H-purin-2-ylamino)pentan-2-ol], the IC50 was 520 nM at CDK2/cyclin E (setting [2]); 35000 nM in experiment [1] (Homo sapiens, NCI-H460, 72 h); 3250 nM on CDK2/cyclin A; 3630 nM at CDK9/cyclin T1. The “Fold increase in potency” value in experiment [1] turned out to be 0.3.

With `CC[C@H](Nc1nc(NCc2cccc(Cl)c2)c2ncn(C(C)C)c2n1)[C@@H](C)O` [[3], 2R,3S-3-(6-(3-Chlorobenzylamino)-9-isopropyl-9H-purin-2-ylamino)pentan-2-ol], the IC50 was 10 nM at CDK2/cyclin E (setting [2]); 1500 nM in experiment [1] (Homo sapiens, NCI-H460, 72 h); 100 nM at CDK2/cyclin A (setting [3]); 60 nM at CDK9/cyclin T1. For the same compound, the “Fold increase in potency” value in experiment [1] came to 8.0.

For the compound `CC[C@H](Nc1nc(NCc2cccc(F)c2)c2ncn(C(C)C)c2n1)[C@@H](C)O` [[4], 2R,3S-3-[6-(3-Fluorobenzylamino)-9-isopropyl-9H-purin-2-ylamino]-pentan-2-ol], the IC50 on CDK2/cyclin E (setting [2]) is 20 nM; in experiment [1] (Homo sapiens, NCI-H460, 72 h), 1500 nM; on CDK2/cyclin A (setting [3]), 120 nM; on CDK9/cyclin T1 it was 80 nM. Besides, the “Fold increase in potency” value in experiment [1] is 8.0.

Turning to `CC[C@H](Nc1nc(NCc2cccnc2)c2ncn(CC3CC3)c2n1)[C@@H](C)O` [[5], 2R,3S-3-(9-(Cyclopropylmethyl)-6-(pyridin-3-ylmethylamino)-9H-purin-2-ylamino)pentan-2-ol], the IC50 was 830 nM on CDK2/cyclin E (setting [2]); 34400 nM in experiment [1] (Homo sapiens, NCI-H460, 72 h); 7890 nM at CDK9/cyclin T1. In addition, in experiment [1], the “Fold increase in potency” value was 0.3.

In the case of `CC[C@H](Nc1nc(NC2CC2)c2ncn(C(C)C)c2n1)[C@@H](C)O` [[6]], the IC50 at CDK2/cyclin E (setting [2]) worked out at 50 nM; in experiment [1] (Homo sapiens, NCI-H460, 72 h) it was 1700 nM; at CDK9/cyclin T1, 270 nM. The “Fold increase in potency” value in experiment [1] was determined as 7.1.

Regarding `CC[C@H](Nc1nc(NCC2CC2)c2ncn(C(C)C)c2n1)[C@@H](C)O` [[7], 2R,3S-3-(6-(Cyclopropylmethylamino)-9-isopropyl-9H-purine-2-ylamino)pentan-2-ol], the IC50 turned out to be 40 nM on CDK2/cyclin E (setting [2]); 2400 nM in experiment [1] (Homo sapiens, NCI-H460, 72 h); 380 nM on CDK9/cyclin T1. For the same compound, the “Fold increase in potency” value in experiment [1] is on record as 5.0.

As to `CC[C@H](Nc1nc(NC2CCC2)c2ncn(C(C)C)c2n1)[C@@H](C)O` [[8], 2R,3S-3-(6-(Cyclobutylamino)-9-isopropyl-9H-purin-2-ylamino)pentan-2-ol], the IC50 on CDK2/cyclin E (setting [2]) came out at 160 nM; in experiment [1] (Homo sapiens, NCI-H460, 72 h) it was 2900 nM; on CDK9/cyclin T1 it was 500 nM. In addition, the “Fold increase in potency” value in experiment [1] is reported as 4.1.

Regarding `CC[C@H](Nc1nc(NCc2ccncc2)c2ncn(C(C)C)c2n1)[C@@H](C)O` [[9], 2R,3S-3-(9-Isopropyl-6-(pyridine-4-ylmethylamino)-9H-purin-2-ylamino)pentan-2-ol], the IC50 at CDK2/cyclin E (setting [2]) is 40 nM; in experiment [1] (Homo sapiens, NCI-H460, 72 h), 2300 nM; at CDK9/cyclin T1 it was 610 nM. Besides, in experiment [1], the “Fold increase in potency” value was 5.2.

For the compound `CC[C@H](Nc1nc(NCc2cc(C)nc(C)c2)c2ncn(C(C)C)c2n1)[C@@H](C)O` [[10], 2R,3S-3-(9-Isopropyl-6-(2,6-dimethylpyridine-4-ylmethylamino)-9H-purin-2-ylamino)pentan-2-ol], the IC50 was 50 nM on CDK2/cyclin E (setting [2]); 2400 nM in experiment [1] (Homo sapiens, NCI-H460, 72 h); 1040 nM on CDK9/cyclin T1. Further, the “Fold increase in potency” value in experiment [1] is given as 5.0.

Consider `CC[C@H](Nc1nc(NCc2ccc(C(F)(F)F)nc2)c2ncn(C(C)C)c2n1)[C@@H](C)O` [[11], 2R,3S-3-(9-Isopropyl-6-((6-(trifluoromethyl)pyridine-3-yl)methylamino)-9H-purin-2-ylamino)pentan-2-ol], for which the IC50 at CDK2/cyclin E (setting [2]) is 40 nM; in experiment [1], 900 nM; in experiment [1] (Homo sapiens, NCI-H460, 72 h) it was less than 1000 nM; at CDK9/cyclin T1, 250 nM. Moreover, the “Fold increase in potency” value in experiment [1] is recorded as 13.3.

In the case of `CC[C@H](Nc1nc(NCc2cccc(C)n2)c2ncn(C(C)C)c2n1)[C@@H](C)O` [[12], 2R,3S-3-(9-Isopropyl-6-((6-methylpyridin-2-yl)methylamino)-9H-purin-2-ylamino)pentan-2-ol], the IC50 on CDK2/cyclin E (setting [2]) amounted to 50 nM; in experiment [1] (Homo sapiens, NCI-H460, 72 h), 7200 nM; at CDK9/cyclin T1, 2040 nM. Also, in experiment [1], the “Fold increase in potency” value is 1.7.

`CC[C@H](Nc1nc(NCc2ncccc2C)c2ncn(C(C)C)c2n1)[C@@H](C)O` [[13], 2R,3S-3-(9-Isopropyl-6-((3-methylpyridin-2-yl)methylamino)-9H-purin-2-ylamino)pentan-2-ol]: the IC50 at CDK2/cyclin E (setting [2]) turned out to be 770 nM; in experiment [1] (Homo sapiens, NCI-H460, 72 h) it was 19400 nM; on CDK9/cyclin T1, 5840 nM. For the same compound, the “Fold increase in potency” value in experiment [1] turned out to be 0.6.

On to `CC(C)n1cnc2c(NCc3cccnc3)nc(NC[C@@H](C)O)nc21` [[14], (R)-1-(9-Isopropyl-6-(pyridin-3-ylmethylamino)-9H-purin-2-ylamino)propan-2-ol], for which the IC50 is 290 nM on CDK2/cyclin E (setting [2]); 16700 nM in experiment [1] (Homo sapiens, NCI-H460, 72 h); 6530 nM at CDK9/cyclin T1. Further, the “Fold increase in potency” value in experiment [1] is 0.7.

For the compound `CC(C)n1cnc2c(NCc3cccnc3)nc(NCC(O)C(F)(F)F)nc21` (stereo not drawn) [[15], 1,1,1-Trifluoro-3-(9-isopropyl-6-(pyridin-3-ylmethylamino)-9H-purin-2-ylamino)propan-2-ol], the IC50 was 570 nM on CDK2/cyclin E (setting [2]); 20300 nM in experiment [1] (Homo sapiens, NCI-H460, 72 h); 7400 nM on CDK9/cyclin T1. Also, the “Fold increase in potency” value in experiment [1] is 0.6.

As for `CCC(Nc1nc(NCc2cccnc2)c2ncn(C(C)C)c2n1)C(O)C(F)(F)F` (stereo not drawn) [[16], 1,1,1-Trifluoro-3-(9-isopropyl-6-(pyridin-3-ylmethylamino)-9H-purin-2-ylamino)pentan-2-ol], the IC50 at CDK2/cyclin E (setting [2]) came out at 90 nM; in experiment [1] (Homo sapiens, NCI-H460, 72 h) it was 4100 nM; on CDK9/cyclin T1 it was 2140 nM. Besides, the “Fold increase in potency” value in experiment [1] worked out at 2.9.

Take `CCC(Nc1nc(NCc2ccc(C(F)(F)F)nc2)c2ncn(C(C)C)c2n1)C(O)C(F)(F)F` (stereo not drawn) [[17], 1,1,1-Trifluoro-3-(9-isopropyl-6-((6-(trifluoromethyl)pyridin-3-yl)methylamino)-9H-2-ylamino)pentan-2-ol]: the IC50 at CDK2/cyclin E (setting [4]) was 318 nM; on CDK2/cyclin E (setting [5]), 307 nM; on CDK2/cyclin E (setting [6]), 313 nM; at CDK2/cyclin A (setting [7]), 305 nM; at CDK2/cyclin A (setting [8]), 431 nM; at CDK2/cyclin A (Table 4, mean of two runs, read-out: CDK2A Mean) it was 368 nM. Further, the IC50 was found to be 6120 nM at CDK1B (setting [9]), 11200 nM at CDK1B (setting [10]) and 8680 nM on CDK1B (setting [11]).

Regarding `CC(C)n1cnc2c(NCc3cccnc3)nc(NCC(O)(C(F)(F)F)C(F)(F)F)nc21` [[18], 1,1,1,3,3,3-Hexafluoro-2-((9-isopropyl-6-(pyridine-3-ylmethylamino)-9H-purin-2-ylamino)methyl)propan-2-ol], the IC50 is 336 nM at CDK2/cyclin E (setting [4]); 279 nM on CDK2/cyclin E (setting [5]); 308 nM at CDK2/cyclin E (setting [6]); 704 nM on CDK2/cyclin A (setting [7]); 1190 nM at CDK2/cyclin A (setting [8]); 5880 nM on CDK1B (setting [9]). In addition, the IC50 turned out to be 6720 nM on CDK1B (setting [10]) and 6300 nM on CDK1B (setting [11]).
